The subject of series [1] is diet-induced obese (DIO) mice. The series is described as follows: Oral glucose tolerance test (OGTT) in diet-induced obese mice. The class given is in vivo, mouse. The following applies: for glucose lowering effects in OGTT (glucose AUC): DIO C57BL/6 mice, 125 mg/kg i.p. once daily for 5 days. An excerpt: High-fat diet feeding in rodents changes multiple biochemical and physiological parameters that reflect the biochemical and physiological changes observed in diet induced obesity (D10). Such diets induce dramatic changes in weight gain that are concomitant with elevations in serum cholesterol, lipids, and triglycerides. Moreover, these high fat diets can lead to atherosclerotic lesions as well as insulin resistance and dysregulation of glucose homeostatic mechanisms that are consistent with obesity induced changes in humans.
Type II diabetes is characterized by high blood glucose levels in the presence of normal amounts of insulin. The animal model or type II diabetes used in these studies involves administering high levels of glucose and then measuring blood glucose levels over time. The test is designed to determine the ability of the experimental animal to maintain glucose homeostasis over time. Drugs that lower blood glucose levels in type II diabetic patients also lower blood glucose levels in this animal model of type II diabetes.
Male C57BL/6J mice were fed a high fat diet for 5 weeks (age 6-11 weeks) prior to study. […] DIO mice were food deprived overnight prior to glucose load (1.5 g/kg, t0). Mice were treated with drug or vehicle 30 minutes before glucose load (t-30). Blood glucose was measured with a glucometer (Accu-Chek® Roche, Indianapolis, IN), from the tip of the tail in free moving mice, at 15 minutes before (t-15), 15 minutes after (t15), and 45 minutes after (t45) glucose load.
In these studies, C57BL/6 mice were fed a high fat diet from 6 to 11 weeks of age, resulting in diet-induced obesity. […] After 5 days of dosing, animals were fasted overnight prior to an oral glucose tolerance test (OGTT). The morning after fasting, a baseline glucose level was measured, followed by compound or vehicle dosing. A second blood glucose level was measured 15 minutes later. At 30 minutes past the first glucose measurement, animals were challenged with a 1.5 g/kg glucose solution per os (p.o.), and blood glucose levels determined 15 and 45 minutes later. Areas under the curve were determined for the blood glucose levels, baselined at the first measurement.

Series [2] has as its target Kir6.2/SUR1 potassium channels (Homo sapiens, UniProt Q09428+Q14654). The series is described as follows: Kir6.2/SUR1 potassium channel patch clamp (PatchXpress) in HEK293 cells. (In general: In patch-clamp work, channel activity is measured electrically.)
Source text: Inhibition is represented as % of control. “ns” represents not statistically significant or P>0.05.
Series [3] deals with T1, human recombinant dipeptidyl dipeptidase-4 (DPP4) (Homo sapiens, UniProt P27487).
T1 construct: Cerep (contract laboratory that ran the assay)
The series is described as follows: Human recombinant DPP4 assay with fluorogenic substrate GP-AMC. The following applies: 10 μM; % of control; ns. The series is classed as biochemical. How it is done:
DPP4 inhibitor K579 was used as a positive control. Assay was performed by Cerep (Bois l'Eveque, France).
Inhibition is represented as % of control.

The nature of series [4]: Body weight of DIO mice during 15-day treatment. The series is classed as in vivo, mouse. The following applies: either time-point or dose (data not shown).
Another series has as its system serum prolactin levels. The following applies: rat, cited from earlier work; for increase in serum prolactin levels: marker of dopamine D2 receptor blockade.
The test system of series [5] is circulating prolactin levels. Briefly: Prolactin assay (plasma prolactin ELISA after OGTT). The series is classed as in vivo, mouse. The conditions noted are these: DIO mice, once daily i.p. for 5 days, plasma 45 min after glucose load. The method, then:
Mice were treated with drug or vehicle 30 minutes before an OGTT (t-30). At 45 minutes after glucose load (t45), mice were bled via retro-orbital sinus into EDTA microfuge tubes. Plasma was rapidly prepared and stored at −80° C. until measurement of prolactin levels (ELISA kit, Genway Biotech, San Diego, Calif.).
A general note: An ELISA detects its analyte on a solid surface through an enzyme-linked reagent.

A short description of series [6]: Pharmacokinetic analysis in mice (plasma, LC/MS/MS). The series is classed as in vivo, mouse. The following applies: normal male mice, 10 mg/kg i.p. How it is done: Male C57B1/6 mice (n =4, two cohorts) were treated with drug and at the designated times after dosing (5, 15, 30, 60 and 120), whole blood was collected via the retro-orbital sinus in heparanized tubes and plasma prepared by centrifugation at 1650 relative centrifugal force (RCF) at 4° C. Plasma samples were extracted by a standard protocol using an acetonitrile/protein precipitation method, and levels of test agent were analyzed by LC/MS/MS.

The test system of a further series is active GLP-1. The series is described as follows: Active GLP-1 in hepatoportal vein blood of normal mice. The following applies: 10 mg/kg i.p., 15 min after glucose bolus. The series is classed as in vivo, mouse. How it is done: (§1) Normal male 12 week old C57BL/6J mice were food deprived 6 hours before the glucose load (1.5 g/kg, t0). Mice were treated with drug or vehicle 30 minutes before glucose load (t-30). Blood glucose was measured with a glucometer (Accu-Chek® Roche, Nutley, N.J.), from the tip of the tail in free moving mice, at t-30, t0, t15, t30, t60, t90, t120 minutes. Blood collection (about 20 μl) was performed from the tip of the tail at t-30, t15 and t30 for plasma insulin determination (ELISA kit, Alpco Diagnostics, Salem, N.H.). After a 1-week washout period, mice were randomly allocated into 2 groups. Mice were food deprived 6 hours before the glucose load (1.5 g/kg, t0) was performed. Mice were treated with drug or vehicle 30 minutes before glucose load. Blood glucose was measured at t0 and t15 minutes. At t15, mice were anesthetized with isoflurane and blood was collected from the hepatoportal vein (on EDTA/diprotin/ aprotinin anticoagulant cocktail). Plasma was rapidly prepared and stored at -80° C. The active form of GLP-1 was then measured (ELISA kit, Millipore, Billerica, Mass.).

In a further series the test system is normal mice. Briefly: OGTT with plasma insulin determination in normal mice. The class given is in vivo, mouse. The following applies: single dose 10 mg/kg i.p. The method, then:
as §1

A further series relates to dopamine D2/D3 receptors. The conditions noted are these: in-vitro assays; cited from earlier work.

The values below come from US20150018360A1, “COMPOSITIONS AND METHODS FOR TREATING METABOLIC DISORDERS” (BIOMED VALLEY DISCOVERIES, INC., priority 2011, published 2015).

Kir6.2/SUR1 potassium channels, sequence (Q14654 whole entry): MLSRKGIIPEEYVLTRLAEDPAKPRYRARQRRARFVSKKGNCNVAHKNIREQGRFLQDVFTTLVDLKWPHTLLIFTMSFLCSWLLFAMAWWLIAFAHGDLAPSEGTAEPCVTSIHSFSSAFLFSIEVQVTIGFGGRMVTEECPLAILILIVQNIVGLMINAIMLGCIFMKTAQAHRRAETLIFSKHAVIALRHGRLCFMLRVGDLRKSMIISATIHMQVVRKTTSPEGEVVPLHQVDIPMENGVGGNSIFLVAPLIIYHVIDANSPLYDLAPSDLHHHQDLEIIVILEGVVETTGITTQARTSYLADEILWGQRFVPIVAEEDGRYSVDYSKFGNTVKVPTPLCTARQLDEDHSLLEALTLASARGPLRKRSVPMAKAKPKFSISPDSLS
Kir6.2/SUR1 potassium channels, sequence (Q09428 whole entry): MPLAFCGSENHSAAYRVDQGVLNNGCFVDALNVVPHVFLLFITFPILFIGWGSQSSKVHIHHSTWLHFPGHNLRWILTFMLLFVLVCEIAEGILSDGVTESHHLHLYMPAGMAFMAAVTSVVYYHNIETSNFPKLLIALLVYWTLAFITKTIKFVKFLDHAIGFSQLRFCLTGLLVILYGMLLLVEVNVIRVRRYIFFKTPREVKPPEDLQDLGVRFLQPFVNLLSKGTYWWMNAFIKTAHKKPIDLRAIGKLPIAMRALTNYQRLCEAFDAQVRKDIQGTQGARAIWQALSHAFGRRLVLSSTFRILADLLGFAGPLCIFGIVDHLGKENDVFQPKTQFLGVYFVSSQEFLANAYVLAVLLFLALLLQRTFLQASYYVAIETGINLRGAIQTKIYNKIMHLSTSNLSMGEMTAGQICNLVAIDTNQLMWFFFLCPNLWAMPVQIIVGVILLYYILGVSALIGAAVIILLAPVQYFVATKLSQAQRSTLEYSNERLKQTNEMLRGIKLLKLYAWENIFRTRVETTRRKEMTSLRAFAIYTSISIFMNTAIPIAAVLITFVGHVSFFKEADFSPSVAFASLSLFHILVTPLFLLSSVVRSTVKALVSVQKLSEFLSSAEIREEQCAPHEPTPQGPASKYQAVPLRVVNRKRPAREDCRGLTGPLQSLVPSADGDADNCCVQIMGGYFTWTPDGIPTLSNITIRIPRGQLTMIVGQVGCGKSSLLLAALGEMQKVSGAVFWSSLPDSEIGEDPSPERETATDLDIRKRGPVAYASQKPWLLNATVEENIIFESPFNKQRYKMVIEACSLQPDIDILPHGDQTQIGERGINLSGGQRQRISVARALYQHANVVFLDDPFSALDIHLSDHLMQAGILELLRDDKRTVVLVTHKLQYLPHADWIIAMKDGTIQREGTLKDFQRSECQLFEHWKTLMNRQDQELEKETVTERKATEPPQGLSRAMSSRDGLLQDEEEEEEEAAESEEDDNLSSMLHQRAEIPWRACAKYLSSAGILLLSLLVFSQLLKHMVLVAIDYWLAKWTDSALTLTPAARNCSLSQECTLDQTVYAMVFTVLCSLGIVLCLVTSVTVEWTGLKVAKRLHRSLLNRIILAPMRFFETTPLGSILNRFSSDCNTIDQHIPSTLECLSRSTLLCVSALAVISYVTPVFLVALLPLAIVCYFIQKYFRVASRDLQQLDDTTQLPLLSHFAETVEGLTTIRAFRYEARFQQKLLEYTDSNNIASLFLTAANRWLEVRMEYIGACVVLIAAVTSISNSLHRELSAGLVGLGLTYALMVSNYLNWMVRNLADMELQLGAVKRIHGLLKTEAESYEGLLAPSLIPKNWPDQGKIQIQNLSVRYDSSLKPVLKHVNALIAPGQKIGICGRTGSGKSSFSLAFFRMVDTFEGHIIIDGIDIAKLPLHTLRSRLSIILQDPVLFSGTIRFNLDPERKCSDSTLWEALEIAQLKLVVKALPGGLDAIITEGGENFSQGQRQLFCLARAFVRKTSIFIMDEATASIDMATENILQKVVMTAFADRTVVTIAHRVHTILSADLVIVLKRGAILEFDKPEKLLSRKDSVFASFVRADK
T1 sequence (P27487 whole entry): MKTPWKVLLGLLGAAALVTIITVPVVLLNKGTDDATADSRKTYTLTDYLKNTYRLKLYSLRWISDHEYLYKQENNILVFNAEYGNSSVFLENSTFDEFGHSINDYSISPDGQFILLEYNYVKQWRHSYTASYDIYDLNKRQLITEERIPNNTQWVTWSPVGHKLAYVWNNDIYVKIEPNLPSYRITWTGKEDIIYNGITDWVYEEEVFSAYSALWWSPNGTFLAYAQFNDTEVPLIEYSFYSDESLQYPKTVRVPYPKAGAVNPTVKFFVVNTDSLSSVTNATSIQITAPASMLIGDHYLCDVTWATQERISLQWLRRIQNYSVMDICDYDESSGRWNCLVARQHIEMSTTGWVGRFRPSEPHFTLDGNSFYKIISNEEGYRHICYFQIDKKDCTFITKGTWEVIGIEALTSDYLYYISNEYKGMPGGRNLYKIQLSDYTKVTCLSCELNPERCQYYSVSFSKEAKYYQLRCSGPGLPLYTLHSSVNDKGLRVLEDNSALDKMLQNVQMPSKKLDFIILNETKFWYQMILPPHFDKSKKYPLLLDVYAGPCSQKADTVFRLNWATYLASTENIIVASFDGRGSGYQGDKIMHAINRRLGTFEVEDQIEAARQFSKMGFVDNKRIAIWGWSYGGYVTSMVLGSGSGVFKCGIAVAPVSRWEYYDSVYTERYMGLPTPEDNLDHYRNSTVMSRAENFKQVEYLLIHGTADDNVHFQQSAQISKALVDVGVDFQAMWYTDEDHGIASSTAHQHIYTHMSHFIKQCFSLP

As for `CCN1CCCC1CNC(=O)c1cc(S(N)(=O)=O)ccc1OC` (racemic) [(R/S)-sulpride], the “glucose lowering effects in OGTT (glucose AUC)” value in [1] is on record as “glucose lowering effects”.
Take `CCN1CCCC1CNC(=O)c1cc(S(=O)(=O)CC)c(N)cc1OC` (racemic) [(R/S)-amisulpride, amisulpride]: in series [2] (10 μM, HEK293 cells, channel activated with 300 μM diazoxide, % of control, ns), the “% inhibition of Kir6.2/SUR1” value is 3.4 (2.4) %. Moreover, the “effect on the sulphonylurea receptor in-vitro” value in [2] (in-vitro (Table 5)) is recorded as “unaffected”. Also, the “% inhibition of DPP4” value in series [3] is reported as 1.9 (2.0) %. Further, the “changes in body weight” value in series [4] is on record as “No changes”. Further, the “glucose lowering effects in OGTT (glucose AUC)” value in [1] is given as “glucose lowering effects”. Also, the “fasting blood glucose levels” value in series [1] (DIO mice, 20 mg/kg, following 5 days of treatment, P<0.05 vs vehicle) came to 158.7 ± 7.5 mg/dL. For the same compound, the “glucose excursion during the OGTT” value in [1] (DIO mice, once daily i.p. for 15 days, both amisulpride doses, OGTT on days 5 and 15) is listed as “significant reduction”.
On to `CCN1CCC[C@H]1CNC(=O)c1cc(S(=O)(=O)CC)c(N)cc1OC` [(S)-amisulpride, (S)(−)-amisulpride], for which, in the series with serum prolactin levels, the “increase in serum prolactin levels” value is listed as 4 fold. Also, the “ED50 for effect on circulating prolactin levels” value in series [5] was 0.01 mg/kg.
Turning to `CCN1CCC[C@@H]1CNC(=O)c1cc(S(=O)(=O)CC)c(N)cc1OC` [(R)-amisulpride, (R)(+)-amisulpride], in series [6], the “maximal plasma drug levels” value is reported as “did not exceed concentrations used in the in vitro assays”. The “active form GLP-1 levels from the hepatic portal vein” value in the series with active GLP-1 is “unchanged”. Besides, in the series on serum prolactin levels, the “increase in serum prolactin levels” value is on record as 1 fold and the “increase in ED50 required to reach maximal effect on prolactin, compared to (S)-amisulpride” value is reported as 40 fold. The “increase in circulating insulin levels compared to vehicle” value in the series on normal mice (OGTT) was “approximately 2.5 fold”. In addition, the glucose excursions entry with normal mice (vs vehicle) is “significantly decreased”. Further, the “ED50 for effect on circulating prolactin levels” value in series [5] is listed as 1.5 mg/kg. Moreover, the “times less potent than (S)-amisulpride in displacing dopamine D2/D3 receptor ligands” value in the series on dopamine D2/D3 receptors was 20-40 times.
